Assays:
[1] = Metabolism stability test (pooled human hepatic microsomes); assay type: in vitro ADME; details: human liver microsomes 0.5 mg protein/mL; 37° C., 30 minutes; 1 mmol/L NADPH; compound concentration 0.5 μmol/L
Protocol: Using commercially available pooled human hepatic microsomes, a test compound was reacted for a constant time, a remaining rate was calculated by comparing a reacted sample and an unreacted sample, thereby, a degree of metabolism in liver was assessed.
A reaction was performed (oxidative reaction) at 37° C. for 0 minute or 30 minutes in the presence of 1 mmol/L NADPH in 0.2 mL of a buffer (50 mmol/L tris-HCl pH 7.4, 150 mmol/L potassium chloride, 10 mmol/L magnesium chloride) containing 0.5 mg protein/mL of human liver microsomes. After the reaction, 50 μL of the reaction solution was added to 100 μL of a methanol/acetonitrile 1/1 (v/v), mixed and centrifuged at 3000 rpm for 15 minutes. The test compound in the supernatant was quantified by LC/MS/MS, and a remaining amount of the test compound after the reaction was calculated, letting a compound amount at 0 minute reaction time to be 100%.

CYP2D6 = CYP2D6 (Homo sapiens (Human), UniProt P10635); test: CYP inhibition test, dextromethorphan O-demethylation; assay type: in vitro ADME; details: pooled human hepatic microsome; 5 μmol/L dextromethorphan; given as 'five kinds'
Chain of CYP2D6 (P10635 whole entry): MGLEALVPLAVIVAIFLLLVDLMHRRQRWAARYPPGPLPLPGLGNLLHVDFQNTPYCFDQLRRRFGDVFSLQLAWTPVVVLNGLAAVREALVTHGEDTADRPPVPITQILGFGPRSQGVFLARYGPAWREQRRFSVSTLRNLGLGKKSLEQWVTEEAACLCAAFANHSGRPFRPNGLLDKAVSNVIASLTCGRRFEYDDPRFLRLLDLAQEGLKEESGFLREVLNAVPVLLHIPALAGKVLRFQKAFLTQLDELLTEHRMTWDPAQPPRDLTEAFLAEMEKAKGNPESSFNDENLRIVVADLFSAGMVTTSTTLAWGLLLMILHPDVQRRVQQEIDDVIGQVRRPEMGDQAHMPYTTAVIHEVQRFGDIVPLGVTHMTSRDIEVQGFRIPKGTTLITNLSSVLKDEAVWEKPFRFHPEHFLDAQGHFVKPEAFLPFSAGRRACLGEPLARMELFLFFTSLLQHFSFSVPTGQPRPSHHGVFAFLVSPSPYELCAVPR
Protocol: (§1) Using commercially available pooled human hepatic microsome, and employing, as markers, 7-ethoxyresorufin O-deethylation (CYP1A2), tolbutamide methyl-hydroxylation (CYP2C9), mephenyloin 4′-hydroxylation (CYP2C19), dextromethorphan O-demethylation (CYP2D6), and terfenedine hydroxylation as typical substrate metabolism reactions of human main five ([…] enzyme forms (CYP1A2, 2C9, 2C19, 2D6, 3A4), an inhibitory degree of each metabolite production amount by a test compound was assessed.
(§2) The reaction conditions were as follows: substrate, 0.5 μmol/L ethoxyresorufin (CYP1A2), 100 μmol/L tolbutamide (CYP2C9), 50 μmol/L S-mephenitoin (CYP2C19), 5 μmol/L dextromethorphan (CYP2D6), 1 μmol/L terfenedine (CYP3A4); reaction time, 15 minutes; reaction temperature, 37° C.; enzyme, pooled human hepatic microsome 0.2 mg protein/mL; test drug concentration, 1.0. 5.0, 10, 20 μmol/L (four points).
(§3) Each five kinds of substrates, human hepatic microsome, or a test drug in 50 mmol/L Hepes buffer as a reaction solution was added to a 96-well plate at the composition as described above. NADPH, as a cofactor was added to initiate metabolism reactions as markers and, after the incubation at 37° C. for 15 minutes, a methanol/acetonitrile=1/1 (v/v) solution was added to stop the reaction. After the centrifugation at 3000 rpm for 15 minutes, resorufin (CYP1A2 metabolite) in the supernatant was quantified by a fluorescent multilabel counter and tributamide hydroxide (CYP2CP metabolite), mephenyloin 4′ hydroxide (CYP2C19 metabolite), […], and terfenadine alcohol (CYP3A4 metabolite) were quantified by LC/MS/MS.
(§4) Addition of only DMSO being a solvent dissolving a drug to a reaction system was adopted as a control (100%), remaining activity (%) was calculated at each concentration of a test drug added as the solution and IC50 was calculated by reverse presumption by a logistic model using a concentration and an inhibition rate.

CYP1A2 = CYP1A2 (Homo sapiens (Human), UniProt P05177); test: CYP inhibition test, 7-ethoxyresorufin O-deethylation; assay type: in vitro ADME; details: pooled human hepatic microsome; 0.5 μmol/L ethoxyresorufin; given as 'five kinds'
Chain of CYP1A2 (P05177 whole entry): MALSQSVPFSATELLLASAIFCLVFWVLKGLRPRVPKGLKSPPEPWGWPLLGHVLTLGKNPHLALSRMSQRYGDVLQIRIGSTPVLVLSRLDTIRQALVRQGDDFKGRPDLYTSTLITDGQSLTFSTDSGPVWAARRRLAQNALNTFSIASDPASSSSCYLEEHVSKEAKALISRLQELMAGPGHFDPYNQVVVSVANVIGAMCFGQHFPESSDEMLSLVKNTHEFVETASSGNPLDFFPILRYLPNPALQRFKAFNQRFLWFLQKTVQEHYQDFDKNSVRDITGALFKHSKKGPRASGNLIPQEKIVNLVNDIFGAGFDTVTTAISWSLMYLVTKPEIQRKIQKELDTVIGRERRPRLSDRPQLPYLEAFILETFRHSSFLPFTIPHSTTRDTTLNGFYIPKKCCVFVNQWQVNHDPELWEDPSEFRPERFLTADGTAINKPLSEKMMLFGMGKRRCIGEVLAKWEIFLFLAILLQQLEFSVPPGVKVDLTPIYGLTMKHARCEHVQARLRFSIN
Protocol: as §1, §2, §3, §4

CYP3A4 = CYP3A4 (Homo sapiens (Human), UniProt P08684); test: CYP inhibition test, terfenedine hydroxylation; assay type: in vitro ADME; details: pooled human hepatic microsome; 1 μmol/L terfenedine; given as 'five kinds'
Chain of CYP3A4 (P08684 whole entry): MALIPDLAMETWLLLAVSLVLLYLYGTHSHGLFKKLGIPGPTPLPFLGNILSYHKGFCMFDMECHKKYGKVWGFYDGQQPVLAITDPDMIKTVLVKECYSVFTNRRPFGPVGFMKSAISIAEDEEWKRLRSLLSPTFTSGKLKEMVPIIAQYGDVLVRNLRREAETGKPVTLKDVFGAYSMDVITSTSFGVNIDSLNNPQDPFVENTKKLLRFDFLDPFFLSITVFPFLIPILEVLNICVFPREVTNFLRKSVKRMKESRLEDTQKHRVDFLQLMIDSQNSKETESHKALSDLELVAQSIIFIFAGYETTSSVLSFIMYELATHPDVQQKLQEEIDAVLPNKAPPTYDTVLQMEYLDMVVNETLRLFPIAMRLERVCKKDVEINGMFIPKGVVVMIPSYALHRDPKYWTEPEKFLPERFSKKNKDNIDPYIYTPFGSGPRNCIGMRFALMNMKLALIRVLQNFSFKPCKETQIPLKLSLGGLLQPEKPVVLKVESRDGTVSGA
Protocol: as §1, §2, §3, §4

Solubility test = assay type: physicochemical; details: artificial intestinal juice (phosphate buffer) with 1% DMSO, 25 °C, other biorelevant, kinetic from dmso stock, artificial intestinal juice in pH 8.8, 25 degrees Celsius for 16 hours
Protocol: The solubility of a compound was determined under a condition in which 1% DMSO was added. 10 mmol/L compound solution was prepared using DMSO, and then 6 μL of the compound solution was added to 594 μL of artificial intestinal juice in […] (to 250 mL of 0.2 mol/L potassium dihydrogen phosphate reagent solution was added 118 mL of 0.2 mol/L NaOH reagent solution and water to provide a final volume of 1000 mL). After standing at 25 degrees Celsius for 16 hours, the mixed solution was filtrated with suction. The filtrate was diluted twice with methanol/water (1/1) and then a concentration in the filtration was measured with HPLC or LC/MS/MS by the absolute calibration method.

CYP2C19 = CYP2C19 (Homo sapiens (Human), UniProt P33261); test: CYP inhibition test, mephenyloin 4'-hydroxylation; assay type: in vitro ADME; details: pooled human hepatic microsome; 50 μmol/L S-mephenitoin; given as 'five kinds'
Chain of CYP2C19 (P33261 whole entry): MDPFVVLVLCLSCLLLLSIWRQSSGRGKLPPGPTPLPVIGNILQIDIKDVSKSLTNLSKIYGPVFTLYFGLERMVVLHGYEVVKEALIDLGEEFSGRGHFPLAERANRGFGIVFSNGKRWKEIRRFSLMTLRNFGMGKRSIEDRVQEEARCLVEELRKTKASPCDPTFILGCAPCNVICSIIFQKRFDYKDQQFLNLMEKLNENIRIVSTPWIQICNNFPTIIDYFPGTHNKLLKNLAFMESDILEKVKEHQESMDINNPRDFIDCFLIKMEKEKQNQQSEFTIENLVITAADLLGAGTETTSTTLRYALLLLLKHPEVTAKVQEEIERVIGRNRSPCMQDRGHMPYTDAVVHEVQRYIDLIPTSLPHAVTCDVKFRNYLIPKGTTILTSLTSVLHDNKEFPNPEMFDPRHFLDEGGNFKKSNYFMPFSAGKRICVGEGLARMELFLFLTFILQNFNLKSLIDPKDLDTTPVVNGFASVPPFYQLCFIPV
Protocol: as §1, §2, §3, §4

CYP2C9 = CYP2C9 (Homo sapiens (Human), UniProt P11712); test: CYP inhibition test, tolbutamide methyl-hydroxylation; assay type: in vitro ADME; details: pooled human hepatic microsome; 100 μmol/L tolbutamide; given as 'five kinds'
Chain of CYP2C9 (P11712 whole entry): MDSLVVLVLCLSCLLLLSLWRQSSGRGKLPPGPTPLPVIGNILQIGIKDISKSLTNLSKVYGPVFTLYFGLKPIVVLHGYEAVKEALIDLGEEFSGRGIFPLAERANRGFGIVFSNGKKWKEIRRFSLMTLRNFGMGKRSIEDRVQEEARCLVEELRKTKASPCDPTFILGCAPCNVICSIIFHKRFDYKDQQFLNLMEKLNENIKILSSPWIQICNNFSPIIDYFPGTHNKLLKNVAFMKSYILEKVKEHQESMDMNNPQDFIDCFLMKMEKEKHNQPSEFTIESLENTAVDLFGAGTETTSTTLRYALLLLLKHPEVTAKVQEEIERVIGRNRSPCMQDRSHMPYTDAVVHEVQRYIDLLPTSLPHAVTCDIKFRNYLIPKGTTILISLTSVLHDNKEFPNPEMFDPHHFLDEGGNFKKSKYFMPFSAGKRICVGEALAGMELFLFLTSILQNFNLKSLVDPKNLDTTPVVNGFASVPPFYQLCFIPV
Protocol: as §1, §2, §3, §4

[2] = Bioavailability (BA) test; assay type: in vivo; details: plasma; Mice or SD rats; oral 0.3 to 30 mg/kg vs intravenous 0.5 to 10 mg/kg; from AUCs
Protocol: Materials and Methods for Experiment of BA
• (1) Animals: Mice or SD rats were used • (2) Breeding conditions: Mice or SD rats were allowed to freely take solid food and sterilized tap water. • (3) Dose and grouping: orally or intravenously administered at a predetermined dose; grouping was as follows (Dose depends on the compound) Oral administration: 0.3 to 30 mg/kg (n=2 to 3) Intravenous administration: 0.5 to 10 mg/kg (n=2 to 3) • (4) Preparation of dosing solution: for oral administration, in a solution or a suspension state; for intravenous administration, in a solubilized state • (5) Administration method: in oral administration, forcedly administer into ventriculus with oral probe; in intravenous administration, administer from caudal vein with a needle-equipped syringe • (6) Evaluation items: blood was collected over time, and the plasma concentration of drug was measured by LC/MS/MS • (7) Statistical analysis: regarding the transition of the plasma concentration of the present compound, the area under the plasma concentration-time curve (AUC) was calculated by non-linear least squares program WinNonlin (Registered trade name), and the bioavailability (BA) was calculated from the AUCs of the oral administration group and intravenous administration group

With `CC(C)Oc1ccc(Nc2cc(=O)n(C[C@H](C)C(=O)O)c(=O)n2Cc2ccc(Cl)cc2)cc1Cl` [I-100] the remaining rate [1] was 101%, the IC50 (CYP2D6) was > 20 µM and the IC50 (CYP1A2) was > 20 µM. For the same compound, the IC50 (CYP3A4) was > 20 µM, the solubility at 16 h (Solubility test) was > 50 µM and the IC50 (CYP2C19) was > 20 µM. The IC50 (CYP2C9) was > 20 µM and the bioavailability [2] was 29.2%.

Reference: US9212130B2, “Heterocyclic derivative and pharmaceutical composition comprising the same” (SHIONOGI & CO., LTD., priority 2010, dated 2015)
